Data: US20080021056A1, “Fused, Tricyclic Sulfonamide Inhibitors of Gamma Secretase” (priority 2006, published 2008)

Experiments:
[1] = biological target: T1, gamma-secretase (Homo sapiens, UniProt P49768); assay: Gamma-secretase APP enzyme assay; format: biochemical; conditions: cleavage of MBP-C125 Swe substrate at the Aβ40 site; partially purified extract of IMR-32 cell membranes; ELISA
T1 construct: partially purified extract of IMR-32 cell membranes as the gamma-secretase enzyme preparation; endogenous in cells; host or cells: IMR-32 cell membranes (partially purified extract)
Outline: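 IMR-32 membrane extract (25 Units) was preincubated with inhibitor for 30 min at 37 °C, then MBP-C125swe substrate (0.05 mg/ml) was added for 2 h at 37 °C in Hepes/NaCl with BigCHAPS and brain lipid (0.53 mg/ml). Reaction stopped with 0.1% SDS. Aβ40 neo-epitope product captured overnight at 4 °C and quantified by sandwich ELISA against a six-point standard curve.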

[2] = biological target: T2, gamma secretase (Mus musculus, UniProt P49769); conditions: PDAPP mice, acute inhibition, in-vivo; cited from earlier work
T2 construct: host or cells: brain of PDAPP transgenic mice (in vivo)

Row | IC50 [1] [nM] | SMILES | Aβ in the brain [2]
1 | 0.1 to 100 | CC[C@@H]1c2cn[nH]c2-c2cc(F)c(F)cc2N1S(=O)(=O)c1ccc(C(F)(F)F)cc1 [(R)-4-ethyl-7,8-difluoro-5-(4-(trifluoromethyl)phenylsulfonyl)-4,5-dihydro-1H-pyrazolo[4,3-c]quinoline] | 
2 |  | C[C@H](NC(=O)Cc1cc(F)cc(F)c1)C(=O)N[C@H](C(=O)OC(C)(C)C)c1ccccc1 [DAPT] | reduction of Aβ in the brain
